target: T1, human TGR5 (Homo sapiens, UniProt Q8TDU6); experiment: Cell-based TGR5 assay (cAMP generation, HTRF); details: HEK293 cells stably transfected with human TGR5; cAMP by HTRF; 30 minutes at 37° C.; read-out: pEC50 Human TGR5 (converted)
T1 construct: expressed in transfected cells; host or cells: HEK293
T1 sequence (Q8TDU6 1-330): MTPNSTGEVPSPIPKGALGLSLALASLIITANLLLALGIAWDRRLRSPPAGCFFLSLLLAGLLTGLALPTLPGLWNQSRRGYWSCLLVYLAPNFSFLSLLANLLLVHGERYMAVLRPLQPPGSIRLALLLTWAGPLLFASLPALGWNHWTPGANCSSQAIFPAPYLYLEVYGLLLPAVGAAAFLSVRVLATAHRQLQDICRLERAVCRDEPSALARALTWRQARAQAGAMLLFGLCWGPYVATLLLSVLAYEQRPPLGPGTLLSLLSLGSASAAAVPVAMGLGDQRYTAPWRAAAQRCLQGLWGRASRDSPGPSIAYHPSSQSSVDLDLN
Summary of the method: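 First, compounds in 3-fold serial dilution were placed in HBSS with 10 mM HEPES pH 7.4 and 0.5 mM IBMX. Next, human TGR5-expressing HEK293 cells were added and incubated 30 min at 37° C. Finally, cAMP was detected by HTRF and pEC50 derived by logistic fitting.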

`CC(C)N(CCCCNC(=O)N[C@@H](CO)[C@@H](O)[C@H](O)[C@H](O)CO)S(=O)(=O)c1ccc(Cl)c(COC2(c3cnccc3-c3ccccc3OC3CC3)CCOC2)c1` (stereo partly drawn) [Compound I-749, 4-chloro-3-(((3-(4-(2-cyclopropoxyphenyl)pyridin-3-yl)tetrahydrofuran-3-yl)oxy)methyl)-N-isopropyl-N-(4-(3-((2S,3R,4S,5R)-1,3,4,5,6-pentahydroxyhexan-2-yl)ureido)butyl)benzenesulfonamide] and `CCN(CCOCCNC(=O)N[C@@H](CO)[C@@H](O)[C@H](O)[C@H](O)CO)S(=O)(=O)c1ccc(Cl)c(COC2(c3cnccc3-c3ccccc3OC3CC3)CC2)c1` [Compound I-415, 1-(2-{2-[N-ethyl4-chloro-3-({1-[4-(2-cyclopropoxyphenyl)pyridin-3-yl]cyclopropoxy}methyl)benzenesulfonamido]ethoxy}ethyl)-3-[(2S,3R,4S,5R)-1,3,4,5,6-pentahydroxyhexan-2-yl]urea] cannot be ordered by EC50: less than 100 nM for the first, less than 100 nM for the second.

`CN(CCCCc1cc(Cl)c(COC2(c3cnccc3-c3ccccc3OC3CC3)CC2)cc1Cl)C(=O)[C@@H](O)[C@@H](O)[C@H](O)[C@@H](O)CN1CCOCC1` (stereo in doubt) [Compound I-189, (2S,3S,4R,5S)-N-{4-[2,5-dichloro-4-({1-[4-(2-cyclopropoxyphenyl)pyridin-3-yl]cyclopropoxy}methyl)phenyl]butyl}-2,3,4,5-tetrahydroxy-N-methyl-6-(morpholin-4-yl)hexanamide] and `CCN(C[C@H](O)[C@@H](O)[C@H](O)[C@H](O)CO)C(=O)CCCCc1cc(Cl)c(COC2(c3cnccc3-c3ccccc3OC3CC3)CC2)cc1Cl` [Compound I-108, 5-[2,5-dichloro-4-({1-[4-(2-cyclopropoxyphenyl)pyridin-3-yl]cyclopropoxy}methyl)phenyl]-N-ethyl-N-[(2S,3R,4R,5R)-2,3,4,5,6-pentahydroxyhexyl]pentanamide] cannot be ordered by EC50: less than 100 nM for the first, less than 100 nM for the second.

`CC(C)N(CCCCNC(=O)[C@@H](O)[C@@H](O)[C@H](O)[C@@H](O)CO)S(=O)(=O)c1cc(COC2(c3cnccc3-c3ccccc3OC3CC3)CC2)c(Cl)cc1F` [Compound I-728, (2S,3S,4R,5S)-2,3,4,5,6-pentahydroxy-N-[4-[N-(propan-2-yl)[4-chloro-5-([1-[4-(2-cyclopropoxyphenyl)pyridin-3-yl]cyclopropoxy]methyl)-2-fluorobenzene]sulfonamido]butyl]hexanamide] and `CN(CCCCNC(=O)NC[C@H](O)[C@@H](O)[C@H](O)[C@H](O)CO)S(=O)(=O)c1ccc(Cl)c(COC2(c3cnccc3-c3ccccc3OC3COC3)CC2)c1` [Compound I-464, 1-(4-{N-methyl4-chloro-3-[(1-{4-[2-(oxetan-3-yloxy)phenyl]pyridin-3-yl}cyclopropoxy)methyl]benzenesulfonamido}butyl)-3-[(2S,3R,4R,5R)-2,3,4,5,6-pentahydroxyhexyl]urea] cannot be ordered by EC50: less than 100 nM for the first, less than 100 nM for the second.

First: O=C(CCCCc1cc(Cl)c(COC2(c3cnccc3-c3ccccc3OC3CC3)CC2)cc1Cl)NC[C@@H]1O[C@H](C(=O)O)[C@@H](O)[C@H](O)[C@H]1O [Compound I-93, (2S,3S,4R,5R,6S)-6-((5-(2,5-dichloro-4-((1-(4-(2-cyclopropoxyphenyl)pyridin-3-yl)cyclopropoxy)methyl)phenyl)pentanamido)methyl)-3,4,5-trihydroxytetrahydro-2H-pyran-2-carboxylic acid]
Second: O=C(NCCCCCOc1ccc(Cl)c(COC2(c3cnccc3-c3ccccc3OC3CC3)CC2)c1)N[C@@H](CO)[C@@H](O)[C@H](O)[C@H](O)CO [Compound I-760, 1-(5-(4-chloro-3-((1-(4-(2-cyclopropoxyphenyl)pyridin-3-yl)cyclopropoxy)methyl)phenoxy)pentyl)-3-((2S,3R,4S,5R)-1,3,4,5,6-pentahydroxyhexan-2-yl)urea]
The EC50 of the first is lower: less than 100 nM for the first, 126 to 1000 nM for the second.

Compared with `CC(C)N(C[C@H](O)[C@@H](O)[C@H](O)[C@H](O)CO)C(=O)CCCSc1ccc(Cl)c(COC2(c3cnccc3-c3ccccc3OC3CC3)CC2)c1` [Compound I-668, 4-{[4-chloro-3-({1-[4-(2-cyclopropoxyphenyl)pyridin-3-yl]cyclopropoxy}methyl)phenyl]sulfanyl}-N-[(2S,3R,4R,5R)-2,3,4,5,6-pentahydroxyhexyl]-N-(propan-2-yl)butanamide], `O=C(CCCSc1ccc(Cl)c(COC2(c3cnccc3-c3ccccc3OC3CC3)CC2)c1)N(CCO)C[C@H](O)[C@@H](O)[C@H](O)[C@H](O)CO` [Compound I-660, 4-{[4-chloro-3-({1-[4-(2-cyclopropoxyphenyl)pyridin-3-yl]cyclopropoxy}methyl)phenyl]sulfanyl}-N-(2-hydroxyethyl)-N-[(2S,3R,4R,5R)-2,3,4,5,6-pentahydroxyhexyl]butanamide] is higher in EC50: less than 100 nM for the first, 126 to 1000 nM for the second.

`Cc1ccc(C(C)CCCC(=O)N(CCC(N)=O)C[C@H](O)[C@@H](O)[C@H](O)[C@H](O)CO)cc1CNC1(c2cnccc2-c2ccccc2OC2CC2)CC1` (stereo partly drawn) [Compound I-359, N-(2-carbamoylethyl)-5-{3-[({1-[4-(2-cyclopropoxyphenyl)pyridin-3-yl]cyclopropyl}amino)methyl]-4-methylphenyl}-N-[(2S,3R,4R,5R)-2,3,4,5,6-pentahydroxyhexyl]hexanamide] and `CC(=O)NCCCN(CCCSc1ccc(Cl)c(CNC2(c3cnccc3-c3ccccc3OC3CC3)CC2)c1)C(=O)[C@@H](O)[C@@H](O)[C@H](O)[C@@H](O)CO` [Compound I-589, (2S,3S,4R,5S)-N-[3-({4-chloro-3-[({1-[4-(2-cyclopropoxyphenyl)pyridin-3-yl]cyclopropyl}amino)methyl]phenyl}sulfanyl)propyl]-N-(3-acetamidopropyl)-2,3,4,5,6-pentahydroxyhexanamide] fall in the same range of EC50: 126 to 1000 nM for the first, 126 to 1000 nM for the second.

First: O=C(NC[C@H](O)[C@@H](O)[C@H](O)[C@H](O)CO)NC1CCC(CCNS(=O)(=O)c2ccc(Cl)c(COC3(c4cnccc4-c4ccccc4OC4CC4)CC3)c2)CC1 (stereo partly drawn) [Compound I-422, 1-(4-{2-[4-chloro-3-({1-[4-(2-cyclopropoxyphenyl)pyridin-3-yl]cyclopropoxy}methyl)benzenesulfonamido]ethyl}cyclohexyl)-3-[(2S,3R,4R,5R)-2,3,4,5,6-pentahydroxyhexyl]urea]
Second: O=C(NCCCCNC(=O)NCCOCCSc1ccc(Cl)c(COC2(c3cnccc3-c3ccccc3OC3CC3)CC2)c1)NCCOCCSc1ccc(Cl)c(COC2(c3cnccc3-c3ccccc3OC3CC3)CC2)c1 [Compound I-638, 3-[2-(2-{[4-chloro-3-({1-[4-(2-cyclopropoxyphenyl)pyridin-3-yl]cyclopropoxy}methyl)phenyl]sulfanyl}ethoxy)ethyl]-1-[4-({[2-(2-{[4-chloro-3-({1-[4-(2-cyclopropoxyphenyl)pyridin-3-yl]cyclopropoxy}methyl)phenyl]sulfanyl}ethoxy)ethyl]carbamoyl}amino)butyl]urea]
The EC50 of the first is lower: less than 100 nM for the first, 126 to 1000 nM for the second.

Compound `CSc1cc(CNC2(c3cnccc3-c3ccccc3OC3CC3)CC2)c(C)cn1` [Compound I-619, [4-(2-cyclopropoxyphenyl)pyridin-3-yl]-N-{[5-methyl-2-(methylsulfanyl)pyridin-4-yl]methyl}cyclopropan-1-amine] has an EC50 of less than 100 nM.
